{"source": "ChEMBL document CHEMBL2062464", "about": "“Allosteric modulation of seven transmembrane spanning receptors: theory, practice, and opportunities for central nervous system drug discovery” (J Med Chem, 2012)", "key": {"[1]": {"target": "T1, Adenosine receptor A1 (Homo sapiens) (UniProt P30542)", "T1 sequence (whole entry)": "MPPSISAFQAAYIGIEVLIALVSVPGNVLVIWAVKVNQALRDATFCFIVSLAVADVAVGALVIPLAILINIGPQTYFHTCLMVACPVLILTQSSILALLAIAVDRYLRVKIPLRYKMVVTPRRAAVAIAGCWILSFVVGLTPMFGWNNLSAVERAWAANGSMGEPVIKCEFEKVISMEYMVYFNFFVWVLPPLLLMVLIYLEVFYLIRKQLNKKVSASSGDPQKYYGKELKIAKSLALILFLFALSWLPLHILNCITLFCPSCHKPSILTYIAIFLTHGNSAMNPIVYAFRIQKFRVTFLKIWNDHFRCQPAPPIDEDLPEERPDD", "experiment": "Allosteric modulation at adenosine A1 receptor assessed as receptor mediated ERK1/2 phosphorylation"}, "[2]": {"target": "T2, Muscarinic acetylcholine receptor M5 (Homo sapiens) (UniProt P08912)", "T2 sequence (whole entry)": "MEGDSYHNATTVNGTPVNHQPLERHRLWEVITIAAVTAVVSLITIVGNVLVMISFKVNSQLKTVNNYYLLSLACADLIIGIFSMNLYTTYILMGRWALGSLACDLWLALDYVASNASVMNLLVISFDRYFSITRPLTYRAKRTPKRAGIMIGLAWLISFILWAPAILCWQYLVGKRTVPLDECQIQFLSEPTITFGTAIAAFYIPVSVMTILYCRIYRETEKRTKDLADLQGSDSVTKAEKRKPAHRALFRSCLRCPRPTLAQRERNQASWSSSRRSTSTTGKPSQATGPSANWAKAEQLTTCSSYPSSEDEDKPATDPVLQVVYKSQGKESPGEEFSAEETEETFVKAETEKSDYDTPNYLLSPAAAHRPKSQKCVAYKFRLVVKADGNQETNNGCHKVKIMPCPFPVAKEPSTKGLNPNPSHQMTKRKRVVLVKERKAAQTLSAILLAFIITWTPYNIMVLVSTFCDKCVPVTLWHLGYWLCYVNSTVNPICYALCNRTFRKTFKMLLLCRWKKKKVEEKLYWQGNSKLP", "experiment": "Positive allosteric modulation activity at muscarinic M5 receptor relative to acetylcholine"}, "[3]": {"target": "T3, Muscarinic acetylcholine receptor M1 (Homo sapiens) (UniProt P11229)", "T3 sequence (whole entry)": "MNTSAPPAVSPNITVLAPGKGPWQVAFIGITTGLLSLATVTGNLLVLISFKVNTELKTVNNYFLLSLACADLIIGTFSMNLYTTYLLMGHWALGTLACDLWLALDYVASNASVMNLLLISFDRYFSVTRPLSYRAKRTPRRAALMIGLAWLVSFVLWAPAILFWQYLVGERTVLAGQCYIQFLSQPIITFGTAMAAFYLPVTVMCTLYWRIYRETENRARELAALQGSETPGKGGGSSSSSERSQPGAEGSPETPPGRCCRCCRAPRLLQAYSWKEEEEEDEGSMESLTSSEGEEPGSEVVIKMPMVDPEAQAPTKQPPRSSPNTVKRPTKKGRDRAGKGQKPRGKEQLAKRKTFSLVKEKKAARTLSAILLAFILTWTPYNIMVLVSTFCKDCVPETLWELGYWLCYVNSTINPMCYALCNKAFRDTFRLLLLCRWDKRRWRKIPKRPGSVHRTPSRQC", "experiment": "Positive allosteric modulation activity at muscarinic M1 receptor relative to acetylcholine"}, "[4]": {"target": "Muscarinic acetylcholine receptor M3 (Homo sapiens) (UniProt P20309)", "experiment": "Positive allosteric modulation activity at muscarinic M3 receptor relative to acetylcholine"}, "[5]": {"target": "T4, Muscarinic acetylcholine receptor M1 (Homo sapiens, UniProt P11229)", "T4 sequence (P11229 whole entry)": "T3 sequence (whole entry)", "experiment": "Positive allosteric modulation activity at muscarinic M1 receptor"}, "[6]": {"target": "T5, Metabotropic glutamate receptor 5 (Homo sapiens, UniProt P41594)", "experiment": "Negative allosteric modulation activity at mGlu5 receptor"}, "[7]": {"target": "T5, Metabotropic glutamate receptor 5", "experiment": "Positive allosteric modulation activity at mGlu5 receptor"}, "[8]": {"target": "T5, Metabotropic glutamate receptor 5", "experiment": "Positive allosteric modulation activity at mGlu5 receptor relative to glutamate"}, "[9]": {"target": "Metabotropic glutamate receptor 2 (Homo sapiens, UniProt Q14416)", "sequence (Q14416 whole entry)": "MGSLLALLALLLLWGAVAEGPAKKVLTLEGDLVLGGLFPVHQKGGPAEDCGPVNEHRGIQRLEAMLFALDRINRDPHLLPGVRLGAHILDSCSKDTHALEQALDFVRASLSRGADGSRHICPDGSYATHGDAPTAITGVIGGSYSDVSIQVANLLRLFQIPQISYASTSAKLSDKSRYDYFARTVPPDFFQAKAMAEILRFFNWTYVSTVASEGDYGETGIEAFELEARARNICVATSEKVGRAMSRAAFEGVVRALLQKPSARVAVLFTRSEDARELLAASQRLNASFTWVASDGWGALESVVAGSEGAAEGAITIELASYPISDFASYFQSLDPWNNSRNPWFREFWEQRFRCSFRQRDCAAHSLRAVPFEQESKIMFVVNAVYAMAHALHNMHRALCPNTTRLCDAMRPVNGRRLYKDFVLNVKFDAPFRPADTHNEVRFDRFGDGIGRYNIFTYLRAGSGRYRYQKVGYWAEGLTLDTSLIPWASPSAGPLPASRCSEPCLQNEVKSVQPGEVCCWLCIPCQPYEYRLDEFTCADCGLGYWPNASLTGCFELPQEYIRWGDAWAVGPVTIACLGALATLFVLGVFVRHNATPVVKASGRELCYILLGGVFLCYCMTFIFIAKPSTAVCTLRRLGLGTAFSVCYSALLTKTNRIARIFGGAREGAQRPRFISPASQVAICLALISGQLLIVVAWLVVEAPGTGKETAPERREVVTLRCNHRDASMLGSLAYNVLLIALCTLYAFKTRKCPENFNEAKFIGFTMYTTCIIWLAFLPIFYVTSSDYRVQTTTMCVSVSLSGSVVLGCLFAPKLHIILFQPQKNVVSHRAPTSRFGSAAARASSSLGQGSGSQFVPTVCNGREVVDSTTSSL", "experiment": "Positive allosteric modulation activity at mGlu2 receptor"}, "[10]": {"target": "Metabotropic glutamate receptor 3 (Homo sapiens, UniProt Q14832)", "experiment": "Positive allosteric modulation activity at mGlu3 receptor"}, "[11]": {"target": "Metabotropic glutamate receptor 6 (Homo sapiens, UniProt O15303)", "experiment": "Positive allosteric modulation activity at mGlu6 receptor"}, "[12]": {"target": "Metabotropic glutamate receptor 8 (Homo sapiens, UniProt O00222)", "sequence (O00222 whole entry)": "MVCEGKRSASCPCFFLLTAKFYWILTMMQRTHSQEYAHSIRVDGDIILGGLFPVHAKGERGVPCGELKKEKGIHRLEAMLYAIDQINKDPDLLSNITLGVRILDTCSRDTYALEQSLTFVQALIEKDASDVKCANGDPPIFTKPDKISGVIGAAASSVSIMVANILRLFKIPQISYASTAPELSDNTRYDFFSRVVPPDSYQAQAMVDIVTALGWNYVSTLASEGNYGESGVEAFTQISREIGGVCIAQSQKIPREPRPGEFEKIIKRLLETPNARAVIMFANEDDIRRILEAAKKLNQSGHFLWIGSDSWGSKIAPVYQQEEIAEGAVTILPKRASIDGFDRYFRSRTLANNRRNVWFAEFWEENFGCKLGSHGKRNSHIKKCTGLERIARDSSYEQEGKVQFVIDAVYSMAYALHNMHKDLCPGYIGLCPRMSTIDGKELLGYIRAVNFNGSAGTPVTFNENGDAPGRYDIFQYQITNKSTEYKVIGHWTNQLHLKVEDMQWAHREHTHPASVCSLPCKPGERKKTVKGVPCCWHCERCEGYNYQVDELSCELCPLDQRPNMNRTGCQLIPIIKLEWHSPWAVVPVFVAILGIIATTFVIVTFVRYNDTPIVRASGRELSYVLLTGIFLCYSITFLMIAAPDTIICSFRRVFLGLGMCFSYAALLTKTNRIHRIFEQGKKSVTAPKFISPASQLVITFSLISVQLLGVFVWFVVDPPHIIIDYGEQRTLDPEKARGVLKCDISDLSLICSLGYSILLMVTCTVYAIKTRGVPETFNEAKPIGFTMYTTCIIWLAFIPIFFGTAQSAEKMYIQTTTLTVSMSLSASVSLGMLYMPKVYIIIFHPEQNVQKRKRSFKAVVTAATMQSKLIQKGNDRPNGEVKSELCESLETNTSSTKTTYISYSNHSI", "experiment": "Positive allosteric modulation activity at mGlu8 receptor"}, "[13]": {"target": "Metabotropic glutamate receptor 4 (Homo sapiens) (UniProt Q14833)", "sequence (Q14833 whole entry)": "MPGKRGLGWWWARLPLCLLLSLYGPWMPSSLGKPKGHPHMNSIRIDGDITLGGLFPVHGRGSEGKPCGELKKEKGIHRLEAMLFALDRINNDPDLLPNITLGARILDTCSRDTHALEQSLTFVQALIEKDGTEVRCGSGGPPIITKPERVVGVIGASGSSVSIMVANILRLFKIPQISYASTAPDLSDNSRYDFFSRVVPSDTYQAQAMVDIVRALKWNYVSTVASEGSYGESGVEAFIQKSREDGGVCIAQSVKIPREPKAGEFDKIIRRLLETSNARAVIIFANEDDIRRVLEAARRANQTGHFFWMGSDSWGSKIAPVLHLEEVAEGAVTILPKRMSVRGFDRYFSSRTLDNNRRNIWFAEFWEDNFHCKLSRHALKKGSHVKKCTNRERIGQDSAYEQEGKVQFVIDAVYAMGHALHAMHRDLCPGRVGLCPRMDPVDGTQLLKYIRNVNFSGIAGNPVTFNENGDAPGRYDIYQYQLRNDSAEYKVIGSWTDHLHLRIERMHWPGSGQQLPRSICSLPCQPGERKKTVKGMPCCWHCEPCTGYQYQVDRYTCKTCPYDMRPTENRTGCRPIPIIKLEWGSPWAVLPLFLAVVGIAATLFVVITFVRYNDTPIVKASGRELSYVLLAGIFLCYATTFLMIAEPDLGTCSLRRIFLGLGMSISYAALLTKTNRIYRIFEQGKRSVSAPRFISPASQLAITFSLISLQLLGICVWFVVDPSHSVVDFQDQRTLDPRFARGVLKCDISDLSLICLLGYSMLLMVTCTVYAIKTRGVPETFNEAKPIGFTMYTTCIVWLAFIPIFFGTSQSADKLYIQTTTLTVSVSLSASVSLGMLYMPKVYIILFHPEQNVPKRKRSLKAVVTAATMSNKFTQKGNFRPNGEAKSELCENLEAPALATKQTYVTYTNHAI", "experiment": "Positive allosteric modulation activity at mGlu4 receptor relative to glutamate"}, "[14]": {"target": "Metabotropic glutamate receptor 7 (Homo sapiens, UniProt Q14831)", "sequence (Q14831 whole entry)": "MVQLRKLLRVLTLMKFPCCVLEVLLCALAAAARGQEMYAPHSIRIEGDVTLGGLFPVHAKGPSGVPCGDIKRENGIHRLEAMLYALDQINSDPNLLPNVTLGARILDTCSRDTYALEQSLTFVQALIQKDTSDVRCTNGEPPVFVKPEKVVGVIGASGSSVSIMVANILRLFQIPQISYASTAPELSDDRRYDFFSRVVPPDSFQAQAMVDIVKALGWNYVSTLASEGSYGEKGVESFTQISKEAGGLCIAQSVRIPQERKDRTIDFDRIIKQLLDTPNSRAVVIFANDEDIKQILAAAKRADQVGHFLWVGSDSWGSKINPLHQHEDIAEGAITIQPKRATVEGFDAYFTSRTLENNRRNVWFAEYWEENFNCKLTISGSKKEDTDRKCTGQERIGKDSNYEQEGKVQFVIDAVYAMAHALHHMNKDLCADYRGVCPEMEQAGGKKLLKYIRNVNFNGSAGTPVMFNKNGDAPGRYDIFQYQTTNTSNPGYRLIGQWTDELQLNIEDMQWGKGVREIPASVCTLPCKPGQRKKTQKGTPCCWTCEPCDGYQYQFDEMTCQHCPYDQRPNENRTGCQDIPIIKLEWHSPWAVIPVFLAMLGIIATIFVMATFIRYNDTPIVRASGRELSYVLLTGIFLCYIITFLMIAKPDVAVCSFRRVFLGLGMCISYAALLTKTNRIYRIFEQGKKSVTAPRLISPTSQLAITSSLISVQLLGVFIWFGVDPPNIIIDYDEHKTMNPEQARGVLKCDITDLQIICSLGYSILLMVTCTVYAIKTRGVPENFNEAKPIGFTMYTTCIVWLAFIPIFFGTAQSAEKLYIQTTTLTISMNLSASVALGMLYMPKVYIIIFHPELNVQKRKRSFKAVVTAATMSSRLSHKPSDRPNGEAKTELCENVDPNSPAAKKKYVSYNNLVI", "experiment": "Positive allosteric modulation activity at mGlu7 receptor"}, "[15]": {"target": "Metabotropic glutamate receptor 1 (Homo sapiens, UniProt Q13255)", "sequence (Q13255 whole entry)": "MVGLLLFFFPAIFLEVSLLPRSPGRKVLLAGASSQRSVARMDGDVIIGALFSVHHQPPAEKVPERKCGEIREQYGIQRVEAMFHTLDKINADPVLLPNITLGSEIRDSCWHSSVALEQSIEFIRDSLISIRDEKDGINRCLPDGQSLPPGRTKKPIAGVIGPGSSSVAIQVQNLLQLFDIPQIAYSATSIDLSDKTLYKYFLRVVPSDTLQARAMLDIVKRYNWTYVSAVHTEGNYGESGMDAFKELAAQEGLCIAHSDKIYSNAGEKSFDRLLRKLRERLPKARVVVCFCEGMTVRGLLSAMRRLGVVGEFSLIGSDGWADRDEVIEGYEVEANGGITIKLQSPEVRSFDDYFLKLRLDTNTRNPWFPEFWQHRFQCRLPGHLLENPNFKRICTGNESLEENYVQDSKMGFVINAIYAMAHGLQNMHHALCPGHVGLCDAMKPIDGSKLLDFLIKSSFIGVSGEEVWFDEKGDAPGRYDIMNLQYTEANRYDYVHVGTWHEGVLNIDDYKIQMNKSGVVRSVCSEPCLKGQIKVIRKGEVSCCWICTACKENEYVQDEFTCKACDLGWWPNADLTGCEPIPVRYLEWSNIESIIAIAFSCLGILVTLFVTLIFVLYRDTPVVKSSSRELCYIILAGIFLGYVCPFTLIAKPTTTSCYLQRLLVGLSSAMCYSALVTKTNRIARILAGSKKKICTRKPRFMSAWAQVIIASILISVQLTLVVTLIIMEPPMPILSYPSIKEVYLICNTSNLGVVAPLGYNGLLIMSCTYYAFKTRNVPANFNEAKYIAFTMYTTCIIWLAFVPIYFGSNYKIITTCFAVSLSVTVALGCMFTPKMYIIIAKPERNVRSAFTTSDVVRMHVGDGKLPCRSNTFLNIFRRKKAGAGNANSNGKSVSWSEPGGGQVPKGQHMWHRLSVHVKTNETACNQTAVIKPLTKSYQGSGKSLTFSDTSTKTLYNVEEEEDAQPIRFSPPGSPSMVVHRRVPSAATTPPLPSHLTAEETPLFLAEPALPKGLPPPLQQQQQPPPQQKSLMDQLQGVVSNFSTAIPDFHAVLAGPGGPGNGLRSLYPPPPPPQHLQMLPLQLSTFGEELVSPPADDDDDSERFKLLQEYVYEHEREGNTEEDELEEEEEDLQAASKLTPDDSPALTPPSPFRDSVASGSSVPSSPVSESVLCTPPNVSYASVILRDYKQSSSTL", "experiment": "Positive allosteric modulation activity at mGlu1 receptor"}}, "data": [{"smiles": "Nc1scc(-c2cc(C(F)(F)F)cc(C(F)(F)F)c2)c1C(=O)c1ccc(Cl)cc1", "values": [{"measurement": "pKb", "setting": "[1]", "result": 5.46}]}, {"smiles": "CCOC(=O)c1c(N)sc2c1CCN(C(=O)OC(C)(C)C)CC2", "values": [{"measurement": "pKb", "setting": "[1]", "result": 6.07}]}, {"smiles": "Nc1sc(-c2cncnc2)c2c1C(=O)c1ccccc1-2", "values": [{"measurement": "pKb", "setting": "[1]", "result": 6.67}]}, {"smiles": "Nc1sc2c(c1C(=O)c1ccc(Cl)cc1)CC1C=C(C(F)(F)F)C=CC1C2", "note": "(stereo unspecified)", "values": [{"measurement": "pKb", "setting": "[1]", "result": 5.12}]}, {"smiles": "Nc1sc2c(c1C(=O)c1ccccc1)CCCCCC2", "values": [{"measurement": "pKb", "setting": "[1]", "result": 5.08}]}, {"smiles": "Cc1ccc(C(=O)c2c(N)sc3c2CCCC3)cc1", "values": [{"measurement": "pKb", "setting": "[1]", "result": 5.1}]}, {"smiles": "O=C1C(=O)N(Cc2ccc(Oc3ccccc3)cc2)c2ccc(OC(F)(F)F)cc21", "values": [{"measurement": "Emax", "setting": "[2]", "result": 75, "unit": "%"}]}, {"smiles": "O=C1C(=O)N(Cc2ccc(Br)cc2)c2ccccc21", "values": [{"measurement": "Emax", "setting": "[3]", "result": 82, "unit": "%"}, {"measurement": "Emax", "setting": "[4]", "result": 66, "unit": "%"}, {"measurement": "Emax", "setting": "[2]", "result": 74, "unit": "%"}]}, {"smiles": "O=C(O)c1cn(Cc2ccc(-c3ccccc3)cc2)c2c(F)cccc2c1=O", "values": [{"measurement": "EC50", "setting": "[5]", "result": 380, "unit": "nM"}]}, {"smiles": "Cc1cccc(C#Cc2cncnc2)c1", "values": [{"measurement": "IC50", "setting": "[6]", "result": 7.5, "unit": "nM"}]}, {"smiles": "Cc1ccc(C#Cc2cncnc2)cc1", "values": [{"measurement": "EC50", "setting": "[7]", "result": 3300, "unit": "nM"}, {"measurement": "Emax", "setting": "[8]", "result": 99, "unit": "%"}]}, {"smiles": "Nc1sc(-c2ccccc2)cc1C(=O)c1ccccc1", "values": [{"measurement": "pKb", "setting": "[1]", "result": 6.36}]}, {"smiles": "COc1ccc(CN2C(=O)C(=O)c3cc(OC(F)(F)F)ccc32)cc1", "values": [{"measurement": "Emax", "setting": "[2]", "result": 91, "unit": "%"}]}, {"smiles": "O=C(Nc1ccccn1)[C@]12C[C@H]1/C(=N\\O)c1ccccc1O2", "values": [{"measurement": "EC50", "setting": "[9]", "result": "> 30000", "unit": "nM"}, {"measurement": "EC50", "setting": "[7]", "result": "> 30000", "unit": "nM"}, {"measurement": "EC50", "setting": "[10]", "result": "> 30000", "unit": "nM"}, {"measurement": "EC50", "setting": "[11]", "result": "> 30000", "unit": "nM"}, {"measurement": "EC50", "setting": "[12]", "result": "> 30000", "unit": "nM"}, {"measurement": "Emax", "setting": "[13]", "result": 121, "unit": "%"}, {"measurement": "EC50", "setting": "[14]", "result": "> 30000", "unit": "nM"}, {"measurement": "EC50", "setting": "[15]", "result": "> 30000", "unit": "nM"}]}, {"smiles": "CNc1ncc(C#Cc2ccccc2)cn1", "values": [{"measurement": "Emax", "setting": "[8]", "result": 128, "unit": "%"}]}, {"smiles": "CCOC(=O)c1nn(-c2cccc(Cl)c2)c(=O)c2c(N)scc12", "values": [{"measurement": "pKb", "setting": "[1]", "result": 8.3}]}, {"smiles": "O=C(O)c1cn(Cc2ccc(-c3ccccc3)cc2)c2cccc(F)c2c1=O", "values": [{"measurement": "EC50", "setting": "[5]", "result": 84, "unit": "nM"}]}, {"smiles": "Nc1scc(-c2cccc(F)c2)c1C(=O)c1ccc(Cl)cc1", "values": [{"measurement": "pKb", "setting": "[1]", "result": 5.88}]}, {"smiles": "Nc1sc(-c2cncnc2)cc1C(=O)c1ccccc1", "values": [{"measurement": "pKb", "setting": "[1]", "result": 5.82}]}, {"smiles": "Cn1cc(-c2ccc(CN3C(=O)C(=O)c4ccccc43)c(F)c2)cn1", "values": [{"measurement": "Emax", "setting": "[3]", "result": 65, "unit": "%"}]}, {"smiles": "Nc1scc(-c2cccc(C(F)(F)F)c2)c1C(=O)c1ccc(Cl)cc1", "values": [{"measurement": "pKb", "setting": "[1]", "result": 5.74}]}, {"smiles": "Nc1sc2c(c1C(=O)c1ccc(Cl)cc1)CC1C=CC=CC1C2", "note": "(stereo unspecified)", "values": [{"measurement": "pKb", "setting": "[1]", "result": 6.01}]}, {"smiles": "Nc1scc(-c2ccccc2F)c1C(=O)c1ccc(Cl)cc1", "values": [{"measurement": "pKb", "setting": "[1]", "result": 5.1}]}, {"smiles": "Nc1scc(-c2cccc(C(F)(F)F)c2)c1C(=O)c1ccccc1", "values": [{"measurement": "pKb", "setting": "[1]", "result": 6.37}]}, {"smiles": "Nc1sc2c(c1C(=O)c1ccc(Cl)cc1)CC1C=CC(C(F)(F)F)=CC1C2", "note": "(stereo unspecified)", "values": [{"measurement": "pKb", "setting": "[1]", "result": 5.11}]}, {"smiles": "CC(C)(C)OC(=O)N1CCc2sc(N)c(C(=O)c3ccc(Cl)cc3)c2CC1", "values": [{"measurement": "pKb", "setting": "[1]", "result": 5.23}]}, {"smiles": "Nc1scc(-c2cc(C(F)(F)F)cc(C(F)(F)F)c2)c1C(=O)c1ccccc1", "values": [{"measurement": "pKb", "setting": "[1]", "result": 5.22}]}, {"smiles": "Cn1cc(-c2ccc(Cn3cc(C(=O)O)c(=O)c4c(F)cccc43)c(F)c2)cn1", "values": [{"measurement": "EC50", "setting": "[5]", "result": 41, "unit": "nM"}]}, {"smiles": "Nc1sc2c(c1C(=O)c1ccc(Cl)cc1)CCCC2", "values": [{"measurement": "pKb", "setting": "[1]", "result": 5.49}]}, {"smiles": "O=C(O)c1cn(Cc2ccc(-c3ccccc3)cc2)c2c(F)ccc(F)c2c1=O", "values": [{"measurement": "EC50", "setting": "[5]", "result": 270, "unit": "nM"}]}, {"smiles": "C(#Cc1cncnc1)c1ccccc1", "values": [{"measurement": "IC50", "setting": "[6]", "result": 486, "unit": "nM"}]}]}
